# Reference: the kinase profiling compilation of Christmann-Franck et al. (2016)
# Columns and labels:
# Assay in all cases: radiometric filter-binding kinase assay
# PIM1 (human) = PIM1 (human) (UniProt P11309)
# MAPK12 (human) = MAPK12 (human) (UniProt P53778)
# MYLK (human) = MYLK (human) (UniProt Q15746)
# RPS6KA3 KD1 KD2 (human) = RPS6KA3 KD1 KD2 (human) (UniProt P51812); conditions: compound 1000.0 µM
# PIM3 (human) = PIM3 (human) (UniProt Q86V86)
# CLK2 (human) = CLK2 (human) (UniProt P49760)
# CSK (human) = CSK (human) (UniProt P41240)
# Chain of CSK (human) (P41240 whole entry, looked up): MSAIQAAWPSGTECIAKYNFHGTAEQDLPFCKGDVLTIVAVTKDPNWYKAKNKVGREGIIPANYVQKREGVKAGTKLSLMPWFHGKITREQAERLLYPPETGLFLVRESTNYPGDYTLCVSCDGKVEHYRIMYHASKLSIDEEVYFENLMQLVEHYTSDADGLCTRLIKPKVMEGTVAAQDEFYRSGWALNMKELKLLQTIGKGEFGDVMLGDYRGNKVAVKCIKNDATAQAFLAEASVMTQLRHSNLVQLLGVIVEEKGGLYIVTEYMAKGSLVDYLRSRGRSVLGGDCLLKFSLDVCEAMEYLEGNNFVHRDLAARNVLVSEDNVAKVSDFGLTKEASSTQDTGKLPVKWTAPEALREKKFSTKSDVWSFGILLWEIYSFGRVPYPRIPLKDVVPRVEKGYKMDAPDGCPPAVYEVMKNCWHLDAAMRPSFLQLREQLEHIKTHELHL
# SYK (human) = SYK (human) (UniProt P43405)
# [1] = tested on: PAK2 (human), Q13177 [T402E]
# Chain of PAK2 (human), Q13177 [T402E] (Q13177 whole entry T402E, looked up): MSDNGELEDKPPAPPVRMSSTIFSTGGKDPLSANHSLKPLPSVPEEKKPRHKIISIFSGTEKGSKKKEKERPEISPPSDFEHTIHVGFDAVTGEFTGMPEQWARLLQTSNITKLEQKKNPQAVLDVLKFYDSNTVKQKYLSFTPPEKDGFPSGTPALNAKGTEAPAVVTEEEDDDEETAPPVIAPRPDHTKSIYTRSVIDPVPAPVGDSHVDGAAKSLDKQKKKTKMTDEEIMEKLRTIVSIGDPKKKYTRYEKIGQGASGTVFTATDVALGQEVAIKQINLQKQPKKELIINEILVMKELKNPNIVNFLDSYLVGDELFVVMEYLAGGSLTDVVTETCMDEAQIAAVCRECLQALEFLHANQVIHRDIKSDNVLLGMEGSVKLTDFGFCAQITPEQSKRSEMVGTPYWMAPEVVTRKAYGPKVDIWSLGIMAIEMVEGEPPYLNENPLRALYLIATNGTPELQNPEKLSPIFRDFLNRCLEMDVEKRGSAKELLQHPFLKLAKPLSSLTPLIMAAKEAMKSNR
# MARK4 (human) = MARK4 (human) (UniProt Q96L34)
# FGFR1 (human) = FGFR1 (human) (UniProt P11362); conditions: compound 10.0 µM
# EPHA4 (human) = EPHA4 (human) (UniProt P54764)
# MAP2K2 (human) = MAP2K2 (human) (UniProt P36507)
# MAP3K7 TAB1 (human) = MAP3K7 TAB1 (human) (UniProt Q15750+O43318)
# Chain of MAP3K7 TAB1 (human) (O43318 whole entry, looked up): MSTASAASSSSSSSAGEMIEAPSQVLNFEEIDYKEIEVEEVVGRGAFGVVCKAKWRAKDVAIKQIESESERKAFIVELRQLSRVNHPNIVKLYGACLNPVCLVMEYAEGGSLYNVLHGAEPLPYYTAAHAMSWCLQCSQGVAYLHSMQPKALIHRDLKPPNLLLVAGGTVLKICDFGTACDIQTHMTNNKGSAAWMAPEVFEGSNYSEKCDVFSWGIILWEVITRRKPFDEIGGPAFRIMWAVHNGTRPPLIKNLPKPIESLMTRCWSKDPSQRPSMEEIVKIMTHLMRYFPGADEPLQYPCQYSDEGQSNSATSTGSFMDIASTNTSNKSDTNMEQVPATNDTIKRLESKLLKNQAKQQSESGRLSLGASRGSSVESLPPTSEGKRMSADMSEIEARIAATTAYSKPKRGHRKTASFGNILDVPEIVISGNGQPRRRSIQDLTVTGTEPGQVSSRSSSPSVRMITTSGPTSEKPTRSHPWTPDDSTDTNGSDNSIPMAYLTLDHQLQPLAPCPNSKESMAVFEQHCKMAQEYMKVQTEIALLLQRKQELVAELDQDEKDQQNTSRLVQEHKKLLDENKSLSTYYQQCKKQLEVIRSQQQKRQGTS
# Chain of MAP3K7 TAB1 (human) (Q15750 whole entry, looked up): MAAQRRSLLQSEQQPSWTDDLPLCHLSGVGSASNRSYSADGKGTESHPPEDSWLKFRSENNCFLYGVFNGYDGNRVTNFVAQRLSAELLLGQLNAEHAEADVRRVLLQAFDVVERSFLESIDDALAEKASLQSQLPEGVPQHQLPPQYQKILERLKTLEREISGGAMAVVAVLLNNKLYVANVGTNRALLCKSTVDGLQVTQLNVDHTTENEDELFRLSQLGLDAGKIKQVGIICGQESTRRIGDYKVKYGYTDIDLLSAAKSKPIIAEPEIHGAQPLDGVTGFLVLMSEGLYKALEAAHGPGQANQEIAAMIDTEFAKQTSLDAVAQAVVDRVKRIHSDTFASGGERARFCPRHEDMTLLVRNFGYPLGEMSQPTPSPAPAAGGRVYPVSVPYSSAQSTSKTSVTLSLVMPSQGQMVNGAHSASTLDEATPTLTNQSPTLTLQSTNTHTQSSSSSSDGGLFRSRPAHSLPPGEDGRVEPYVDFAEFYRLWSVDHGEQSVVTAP
# CSNK1D (human) = CSNK1D (human) (UniProt P48730)
# TTK (human) = TTK (human) (UniProt P33981)
# MAP3K11 (human) = MAP3K11 (human) (UniProt Q16584)
# BRSK2 (human) = BRSK2 (human) (UniProt Q8IWQ3)
# MAPK8 (human) = MAPK8 (human) (UniProt P45983)
# Chain of MAPK8 (human) (P45983 whole entry, looked up): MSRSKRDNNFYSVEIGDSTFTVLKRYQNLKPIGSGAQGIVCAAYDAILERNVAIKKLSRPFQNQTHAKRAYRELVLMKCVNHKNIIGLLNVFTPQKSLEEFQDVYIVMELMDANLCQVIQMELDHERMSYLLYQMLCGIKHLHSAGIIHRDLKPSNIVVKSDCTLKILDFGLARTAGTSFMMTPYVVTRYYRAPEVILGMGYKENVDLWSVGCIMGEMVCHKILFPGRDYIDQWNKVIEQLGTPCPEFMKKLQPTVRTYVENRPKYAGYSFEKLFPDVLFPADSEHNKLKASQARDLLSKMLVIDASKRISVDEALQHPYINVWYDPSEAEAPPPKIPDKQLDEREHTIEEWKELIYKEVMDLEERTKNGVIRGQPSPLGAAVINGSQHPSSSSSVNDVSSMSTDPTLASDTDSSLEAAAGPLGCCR
# MELK (human) = MELK (human) (UniProt Q14680)
# RIPK2 (human) = RIPK2 (human) (UniProt O43353)
# JAK2 JH1 JH2 (human) = JAK2 JH1 JH2 (human) (UniProt O60674)
# BRSK1 (human) = BRSK1 (human) (UniProt Q8TDC3)
# IRAK4 (human) = IRAK4 (human) (UniProt Q9NWZ3)
# [2] = tested on: SGK1 (human), O00141 [S422D]
# Chain of SGK1 (human), O00141 [S422D] (O00141 whole entry S422D, looked up): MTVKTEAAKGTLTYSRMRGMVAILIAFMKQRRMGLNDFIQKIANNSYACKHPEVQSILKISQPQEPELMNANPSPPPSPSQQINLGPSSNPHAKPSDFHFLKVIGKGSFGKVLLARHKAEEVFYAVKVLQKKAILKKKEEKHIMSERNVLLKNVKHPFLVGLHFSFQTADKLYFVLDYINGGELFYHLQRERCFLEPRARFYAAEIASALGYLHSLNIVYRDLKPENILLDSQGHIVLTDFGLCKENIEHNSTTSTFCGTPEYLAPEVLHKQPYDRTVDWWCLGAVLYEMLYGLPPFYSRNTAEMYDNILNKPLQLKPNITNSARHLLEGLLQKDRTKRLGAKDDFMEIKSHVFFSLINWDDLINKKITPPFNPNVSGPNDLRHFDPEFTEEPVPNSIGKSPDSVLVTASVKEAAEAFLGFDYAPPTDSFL
# [3] = tested on: RPS6KB1 (human), P23443 [T412E]
# FLT1 (human) = FLT1 (human) (UniProt P17948)
# INSRR (human) = INSRR (human) (UniProt P14616)
# TBK1 (human) = TBK1 (human) (UniProt Q9UHD2)
# MAPKAPK3 (human) = MAPKAPK3 (human) (UniProt Q16644)
# CDK2 CCNA2 (human) = CDK2 CCNA2 (human) (UniProt P20248+P24941)
# AURKA (human) = AURKA (human) (UniProt O14965)
# EPHB2 (human) = EPHB2 (human) (UniProt P29323)
# PLK1 (human) = PLK1 (human) (UniProt P53350)
# INSR (human) = INSR (human) (UniProt P06213)
# Chain of INSR (human) (P06213 whole entry, looked up): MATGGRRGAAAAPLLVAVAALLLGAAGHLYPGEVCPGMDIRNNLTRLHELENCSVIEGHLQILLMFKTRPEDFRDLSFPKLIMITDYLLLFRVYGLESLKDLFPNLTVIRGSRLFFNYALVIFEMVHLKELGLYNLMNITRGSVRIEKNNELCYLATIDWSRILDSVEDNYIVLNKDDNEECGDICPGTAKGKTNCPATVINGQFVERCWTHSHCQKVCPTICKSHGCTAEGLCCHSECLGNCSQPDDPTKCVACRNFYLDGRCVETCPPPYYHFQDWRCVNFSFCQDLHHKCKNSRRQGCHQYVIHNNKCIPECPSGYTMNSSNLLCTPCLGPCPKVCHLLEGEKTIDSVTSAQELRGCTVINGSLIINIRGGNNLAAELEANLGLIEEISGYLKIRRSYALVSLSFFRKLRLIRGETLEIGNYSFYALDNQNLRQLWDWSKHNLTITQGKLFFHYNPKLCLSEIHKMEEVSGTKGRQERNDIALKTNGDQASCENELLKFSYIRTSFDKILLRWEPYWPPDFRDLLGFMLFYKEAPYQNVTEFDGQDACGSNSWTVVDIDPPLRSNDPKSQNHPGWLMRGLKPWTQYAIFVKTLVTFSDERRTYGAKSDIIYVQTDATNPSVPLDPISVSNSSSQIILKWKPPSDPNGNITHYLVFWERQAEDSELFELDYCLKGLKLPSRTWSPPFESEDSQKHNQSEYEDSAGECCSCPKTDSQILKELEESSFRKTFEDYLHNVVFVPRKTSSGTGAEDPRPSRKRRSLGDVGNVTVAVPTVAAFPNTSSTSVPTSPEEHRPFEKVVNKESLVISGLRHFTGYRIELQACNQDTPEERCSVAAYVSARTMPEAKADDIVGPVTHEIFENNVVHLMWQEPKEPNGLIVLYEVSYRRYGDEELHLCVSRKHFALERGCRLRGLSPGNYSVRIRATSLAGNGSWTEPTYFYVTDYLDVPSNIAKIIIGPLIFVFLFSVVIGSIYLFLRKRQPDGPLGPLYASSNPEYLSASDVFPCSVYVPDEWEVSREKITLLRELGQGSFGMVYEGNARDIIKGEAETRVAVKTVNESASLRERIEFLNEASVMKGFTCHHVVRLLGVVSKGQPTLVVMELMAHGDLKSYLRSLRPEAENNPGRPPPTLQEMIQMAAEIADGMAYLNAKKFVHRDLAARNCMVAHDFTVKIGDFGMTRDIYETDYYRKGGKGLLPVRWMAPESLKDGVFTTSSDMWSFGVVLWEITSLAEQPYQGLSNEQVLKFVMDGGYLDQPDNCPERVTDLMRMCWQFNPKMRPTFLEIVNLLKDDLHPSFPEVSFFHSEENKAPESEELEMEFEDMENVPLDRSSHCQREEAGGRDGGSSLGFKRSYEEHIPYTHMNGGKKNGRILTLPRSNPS
# Chain of PIM1 (human) (P11309 whole entry, looked up): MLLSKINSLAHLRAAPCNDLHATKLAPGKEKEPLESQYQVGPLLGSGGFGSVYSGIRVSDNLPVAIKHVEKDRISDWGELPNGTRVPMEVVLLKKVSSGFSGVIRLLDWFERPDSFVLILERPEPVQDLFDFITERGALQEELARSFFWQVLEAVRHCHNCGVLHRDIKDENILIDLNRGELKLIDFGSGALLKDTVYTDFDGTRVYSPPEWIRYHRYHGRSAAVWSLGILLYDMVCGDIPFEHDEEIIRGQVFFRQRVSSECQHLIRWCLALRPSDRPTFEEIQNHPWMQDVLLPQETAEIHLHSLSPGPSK
compound,measurement,setting,value
COC(=O)/C=C/C(=O)OC,residual activity,PIM1 (human); compound 10.0 µM,99%
same,residual activity,PIM1 (human); compound 100.0 µM,107%
same,residual activity,PIM1 (human); compound 1000.0 µM,101%
same,residual activity,MAPK12 (human); compound 10.0 µM,87%
same,residual activity,MAPK12 (human); compound 100.0 µM,96%
same,residual activity,MAPK12 (human); compound 1000.0 µM,104%
same,residual activity,MYLK (human); compound 100.0 µM,99%
same,residual activity,MYLK (human); compound 1000.0 µM,102%
same,residual activity,RPS6KA3 KD1 KD2 (human),117%
same,residual activity,PIM3 (human); compound 10.0 µM,96%
same,residual activity,PIM3 (human); compound 100.0 µM,106%
same,residual activity,PIM3 (human); compound 1000.0 µM,92%
same,residual activity,CLK2 (human); compound 10.0 µM,92%
same,residual activity,CLK2 (human); compound 100.0 µM,100%
same,residual activity,CLK2 (human); compound 1000.0 µM,101%
same,residual activity,CSK (human); compound 10.0 µM,87%
same,residual activity,CSK (human); compound 100.0 µM,82%
same,residual activity,CSK (human); compound 1000.0 µM,86%
same,residual activity,SYK (human); compound 10.0 µM,106%
same,residual activity,SYK (human); compound 100.0 µM,118%
same,residual activity,SYK (human); compound 1000.0 µM,116%
same,residual activity,[1]; compound 10.0 µM,101%
same,residual activity,[1]; compound 100.0 µM,104%
same,residual activity,[1]; compound 1000.0 µM,86%
same,residual activity,MARK4 (human); compound 100.0 µM,92%
same,residual activity,MARK4 (human); compound 1000.0 µM,96%
same,residual activity,FGFR1 (human),85%
same,residual activity,EPHA4 (human); compound 10.0 µM,98%
same,residual activity,EPHA4 (human); compound 100.0 µM,105%
same,residual activity,EPHA4 (human); compound 1000.0 µM,119%
same,residual activity,MAP2K2 (human); compound 10.0 µM,105%
same,residual activity,MAP2K2 (human); compound 100.0 µM,101%
same,residual activity,MAP3K7 TAB1 (human); compound 10.0 µM,105%
same,residual activity,MAP3K7 TAB1 (human); compound 100.0 µM,115%
same,residual activity,MAP3K7 TAB1 (human); compound 1000.0 µM,103%
same,residual activity,CSNK1D (human); compound 10.0 µM,88%
same,residual activity,CSNK1D (human); compound 100.0 µM,94%
same,residual activity,CSNK1D (human); compound 1000.0 µM,105%
same,residual activity,TTK (human); compound 10.0 µM,98%
same,residual activity,TTK (human); compound 100.0 µM,93%
same,residual activity,TTK (human); compound 1000.0 µM,93%
same,residual activity,MAP3K11 (human); compound 10.0 µM,100%
same,residual activity,MAP3K11 (human); compound 100.0 µM,97%
same,residual activity,BRSK2 (human); compound 10.0 µM,91%
same,residual activity,BRSK2 (human); compound 100.0 µM,99%
same,residual activity,BRSK2 (human); compound 1000.0 µM,108%
same,residual activity,MAPK8 (human); compound 10.0 µM,99%
same,residual activity,MAPK8 (human); compound 100.0 µM,92%
same,residual activity,MAPK8 (human); compound 1000.0 µM,109%
same,residual activity,MELK (human); compound 10.0 µM,93%
same,residual activity,MELK (human); compound 100.0 µM,103%
same,residual activity,RIPK2 (human); compound 10.0 µM,93%
same,residual activity,RIPK2 (human); compound 100.0 µM,104%
same,residual activity,RIPK2 (human); compound 1000.0 µM,111%
same,residual activity,JAK2 JH1 JH2 (human); compound 10.0 µM,100%
same,residual activity,JAK2 JH1 JH2 (human); compound 100.0 µM,105%
same,residual activity,JAK2 JH1 JH2 (human); compound 1000.0 µM,116%
same,residual activity,BRSK1 (human); compound 100.0 µM,93%
same,residual activity,BRSK1 (human); compound 1000.0 µM,91%
same,residual activity,IRAK4 (human); compound 10.0 µM,88%
same,residual activity,IRAK4 (human); compound 100.0 µM,104%
same,residual activity,IRAK4 (human); compound 1000.0 µM,117%
same,residual activity,[2]; compound 10.0 µM,93%
same,residual activity,[2]; compound 100.0 µM,96%
same,residual activity,[2]; compound 1000.0 µM,100%
same,residual activity,[3]; compound 10.0 µM,99%
same,residual activity,[3]; compound 100.0 µM,101%
same,residual activity,[3]; compound 1000.0 µM,115%
same,residual activity,FLT1 (human); compound 10.0 µM,108%
same,residual activity,FLT1 (human); compound 100.0 µM,110%
same,residual activity,FLT1 (human); compound 1000.0 µM,98%
same,residual activity,INSRR (human); compound 10.0 µM,103%
same,residual activity,INSRR (human); compound 100.0 µM,108%
same,residual activity,INSRR (human); compound 1000.0 µM,112%
same,residual activity,TBK1 (human); compound 10.0 µM,89%
same,residual activity,TBK1 (human); compound 100.0 µM,100%
same,residual activity,MAPKAPK3 (human); compound 10.0 µM,87%
same,residual activity,MAPKAPK3 (human); compound 100.0 µM,97%
same,residual activity,CDK2 CCNA2 (human); compound 10.0 µM,77%
same,residual activity,CDK2 CCNA2 (human); compound 100.0 µM,75%
same,residual activity,CDK2 CCNA2 (human); compound 1000.0 µM,87%
same,residual activity,AURKA (human); compound 10.0 µM,117%
same,residual activity,AURKA (human); compound 100.0 µM,120%
same,residual activity,AURKA (human); compound 1000.0 µM,114%
same,residual activity,EPHB2 (human); compound 10.0 µM,118%
same,residual activity,EPHB2 (human); compound 100.0 µM,118%
same,residual activity,EPHB2 (human); compound 1000.0 µM,120%
same,residual activity,PLK1 (human); compound 10.0 µM,94%
same,residual activity,PLK1 (human); compound 100.0 µM,100%
same,residual activity,PLK1 (human); compound 1000.0 µM,91%
same,residual activity,INSR (human); compound 10.0 µM,60%
same,residual activity,INSR (human); compound 100.0 µM,62%
same,residual activity,INSR (human); compound 1000.0 µM,79%
